These results are taken from article PMC5413018, “Neuropeptide S (NPS) variants modify the signaling and risk effects of NPS Receptor 1 (NPSR1) variants in asthma” (PLoS ONE, 2017).

Assay [1] concerns the target T1, NPSR1-Asn(107) (Homo sapiens, UniProt Q6W5P4).
T1 construct: expressed in transfected cells; host or cells: HEK293
T1 sequence (Q6W5P4 1-371): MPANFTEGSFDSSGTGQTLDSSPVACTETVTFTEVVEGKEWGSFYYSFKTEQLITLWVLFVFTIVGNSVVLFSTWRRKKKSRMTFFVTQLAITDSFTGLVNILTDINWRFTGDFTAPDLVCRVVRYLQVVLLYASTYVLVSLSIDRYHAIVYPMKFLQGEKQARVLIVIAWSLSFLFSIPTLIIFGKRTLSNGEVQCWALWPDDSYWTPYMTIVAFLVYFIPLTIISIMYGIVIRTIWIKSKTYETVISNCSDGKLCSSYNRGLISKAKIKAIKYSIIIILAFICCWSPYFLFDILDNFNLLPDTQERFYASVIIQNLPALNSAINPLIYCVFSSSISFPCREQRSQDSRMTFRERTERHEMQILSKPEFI
In words: CRE-dependent luciferase activity, NPSR1-Asn(107). It is filed as cell-based. The conditions noted are these: HEK293 transiently transfected with NPSR1-Asn(107); NPS 10 pM-100 μM, 3 h; three experiments in triplicates; mean ± SE; Val(6) vs Leu(6) p = 0.03; read-out: pEC50 for CRE-dependent luciferase activity (converted). From the text:
(§1) To compare the bioactivities of the two NPS variants, we measured the dose-responses of NPSR1-Ile(107) and NPSR1-Asn(107) coding variants to either wildtype NPS-Val(6) or alternative NPS-Leu(6) in a luciferase assay dependent on the activation of a cAMP-response element (CRE). This assay was used since elevation of the intracellular cAMP levels activates cAMP response element binding protein (CREB) via […]. Activated CREB binds to CRE and induces the expression of downstream target genes of the cAMP/PKA signaling pathway. Because of the low endogenous expression levels of NPSR1 in majority of the available cell lines, we first used HEK293 cells with forced NPSR1 expression as a model for ligand-receptor interactions. […] Firefly and Renilla luciferase activity was measured 3 h after stimulation with serial dilutions of NPS (10 pM-100 μM). […]
(§2) Human embryonic kidney cells (HEK293) were cultured in MEM+GlutaMAX-1 medium (Gibco/Invitrogen) supplemented with 10% fetal calf serum (FCS) (Biosera), 1% sodium pyruvate, 1% non-essential amino acids and 1% penicillin/streptomycin (Gibco/Invitrogen). […] The HEK293 cell line was chosen for ligand-receptor studies because it is a well-established model for addressing numerous questions in basic biology and is easy to transfect and amenable of stringent quantitative assessment. […]

Assay [2] addresses T2, NPSR1-Ile(107) (Homo sapiens, UniProt Q6W5P4, N107I).
T2 sequence (Q6W5P4 1-371 N107I): T1 sequence (Q6W5P4 1-371) with N107I
In words: CRE-dependent luciferase activity, NPSR1-Ile(107). Conditions: HEK293 transiently transfected with NPSR1-Ile(107); NPS 10 pM-100 μM, 3 h; three experiments in triplicates; mean ± SE; Val(6) vs Leu(6) p = 0.004; read-out: pEC50 for CRE-dependent luciferase activity (converted). Format: cell-based. On the set-up: expressed in transfected cells; host or cells: HEK293.
Description: as §1, §2

Changes are numbered by the printed parent chain. Residues, ends and D or L forms follow the SMILES beside them.

With `CSCC[C@H](NC(=O)CNC(=O)[C@@H](NC(=O)CNC(=O)[C@@H](NC(=O)CNC(=O)[C@H](CC(N)=O)NC(=O)[C@H](CCCNC(=N)N)NC(=O)[C@H](Cc1ccccc1)NC(=O)[C@@H](N)CO)C(C)C)[C@@H](C)O)C(=O)N[C@@H](CCCCN)C(=O)N[C@@H](CCCCN)C(=O)N[C@H](C(=O)N[C@@H](CO)C(=O)N[C@@H](Cc1ccccc1)C(=O)N[C@@H](CCC(N)=O)C(=O)N[C@@H](CCCNC(=N)N)C(=O)N[C@@H](C)C(=O)N[C@@H](CCCCN)C(=O)N[C@@H](CO)C(=O)O)[C@@H](C)O` [NPS-Val(6)] (H-SFRNGVGTGMKKTSFQRAKS-OH), the EC50 in assay [1] was 794 nM; in assay [2], 3.98 nM.
`CSCC[C@H](NC(=O)CNC(=O)[C@@H](NC(=O)CNC(=O)[C@H](CC(C)C)NC(=O)CNC(=O)[C@H](CC(N)=O)NC(=O)[C@H](CCCNC(=N)N)NC(=O)[C@H](Cc1ccccc1)NC(=O)[C@@H](N)CO)[C@@H](C)O)C(=O)N[C@@H](CCCCN)C(=O)N[C@@H](CCCCN)C(=O)N[C@H](C(=O)N[C@@H](CO)C(=O)N[C@@H](Cc1ccccc1)C(=O)N[C@@H](CCC(N)=O)C(=O)N[C@@H](CCCNC(=N)N)C(=O)N[C@@H](C)C(=O)N[C@@H](CCCCN)C(=O)N[C@@H](CO)C(=O)O)[C@@H](C)O` [NPS-Leu(6)] (H-SFRNGLGTGMKKTSFQRAKS-OH): the EC50 in assay [1] was 12600 nM; in assay [2], 200 nM.
